From patent publication US7018639B1, “Vaccine antigens of Moraxella” (Commonwealth Scientific and Industrial Research Organisation, priority 1999, dated 2006)

Tested on: M. bovis protease
Format: biochemical, Moraxella bovis
Conditions: 37° C.

For `O=S(=O)(F)Cc1ccccc1` [PMSF, phenylmethylsulfonyl fluoride], the “protease activity after inhibitor” value was “zero”.
